Experimental data reported in PubChem BioAssay (NCI).
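In this assay, cells in 96-well plates receive the compound at five concentrations for 48 hours. Endpoints are linearly interpolated between the surrounding concentrations. GI50 is the concentration that inhibits growth by half. TGI denotes the concentration required for complete inhibition of growth.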

Legend:
Assay in all cases: DTP human tumour cell line panel, 48 h
786-0 renal = test system: 786-0 renal
A498 renal = test system: A498 renal
A549 NSCLC = test system: A549 NSCLC
ACHN renal = test system: ACHN renal
BT-549 breast = test system: BT-549 breast
CAKI-1 renal = test system: CAKI-1 renal
CCRF-CEM leukemia = test system: CCRF-CEM leukemia
COLO 205 colon = test system: COLO 205 colon
DU-145 prostate = test system: DU-145 prostate
EKVX NSCLC = test system: EKVX NSCLC
HCC-2998 colon = test system: HCC-2998 colon
HCT-116 colon = test system: HCT-116 colon
HCT-15 colon = test system: HCT-15 colon
HL-60(TB) leukemia = test system: HL-60(TB) leukemia
HOP-62 NSCLC = test system: HOP-62 NSCLC
HOP-92 NSCLC = test system: HOP-92 NSCLC
HS 578T breast = test system: HS 578T breast
HT29 colon = test system: HT29 colon
IGROV1 ovarian = test system: IGROV1 ovarian
K-562 leukemia = test system: K-562 leukemia
KM12 colon = test system: KM12 colon
LOX IMVI melanoma = test system: LOX IMVI melanoma
M14 melanoma = test system: M14 melanoma
MALME-3M melanoma = test system: MALME-3M melanoma
MCF7 breast = test system: MCF7 breast
MDA-MB-231 breast = test system: MDA-MB-231 breast
MDA-MB-435 = test system: MDA-MB-435
MOLT-4 leukemia = test system: MOLT-4 leukemia
NCI-H226 lung = test system: NCI-H226 lung
NCI-H23 lung = test system: NCI-H23 lung
NCI-H460 lung = test system: NCI-H460 lung
NCI-H522 lung = test system: NCI-H522 lung
NCI/ADR-RES ovarian = test system: NCI/ADR-RES ovarian
OVCAR-3 ovarian = test system: OVCAR-3 ovarian
OVCAR-4 ovarian = test system: OVCAR-4 ovarian
OVCAR-5 ovarian = test system: OVCAR-5 ovarian
OVCAR-8 ovarian = test system: OVCAR-8 ovarian
PC-3 prostate = test system: PC-3 prostate
RPMI-8226 leukemia = test system: RPMI-8226 leukemia
RXF 393 renal = test system: RXF 393 renal
SF-268 CNS = test system: SF-268 CNS
SF-295 CNS = test system: SF-295 CNS
SF-539 CNS = test system: SF-539 CNS
SK-MEL-2 melanoma = test system: SK-MEL-2 melanoma
SK-MEL-28 melanoma = test system: SK-MEL-28 melanoma
SK-MEL-5 melanoma = test system: SK-MEL-5 melanoma
SK-OV-3 ovarian = test system: SK-OV-3 ovarian
SN12C renal = test system: SN12C renal
SNB-19 CNS = test system: SNB-19 CNS
SNB-75 CNS = test system: SNB-75 CNS
SR leukemia = test system: SR leukemia
SW-620 colon = test system: SW-620 colon
T-47D breast = test system: T-47D breast
TK-10 renal = test system: TK-10 renal
U251 CNS = test system: U251 CNS
UACC-257 melanoma = test system: UACC-257 melanoma
UACC-62 melanoma = test system: UACC-62 melanoma
UO-31 renal = test system: UO-31 renal

SMILES: COc1cc(C(=O)NC2CCN(C)CC2)ccc1Nc1ncc2c(n1)N(C1CCCC1)CC(F)(F)C(=O)N2C
- GI50 (786-0 renal): 90.3 nM
- TGI (786-0 renal): 6870 nM
- GI50 (A498 renal): 28 nM
- TGI (A498 renal): 272 nM
- GI50 (A549 NSCLC): < 19.3 nM
- TGI (A549 NSCLC): 4380 nM
- GI50 (ACHN renal): 542 nM
- TGI (ACHN renal): 14900 nM
- GI50 (BT-549 breast): 98.9 nM
- TGI (BT-549 breast): 15500 nM
- GI50 (CAKI-1 renal): 1860 nM
- TGI (CAKI-1 renal): 12200 nM
- GI50 (CCRF-CEM leukemia): < 10 nM
- TGI (CCRF-CEM leukemia): 12200 nM
- GI50 (COLO 205 colon): < 10 nM
- TGI (COLO 205 colon): 64 nM
- GI50 (DU-145 prostate): < 10 nM
- TGI (DU-145 prostate): 62.1 nM
- GI50 (EKVX NSCLC): 245 nM
- TGI (EKVX NSCLC): 17500 nM
- GI50 (HCC-2998 colon): < 16.6 nM
- TGI (HCC-2998 colon): 2200 nM
- GI50 (HCT-116 colon): < 11.8 nM
- TGI (HCT-116 colon): 11200 nM
- GI50 (HCT-15 colon): 468 nM
- TGI (HCT-15 colon): 13700 nM
- GI50 (HL-60(TB) leukemia): < 10 nM
- TGI (HL-60(TB) leukemia): 22.3 nM
- GI50 (HOP-62 NSCLC): < 16.7 nM
- TGI (HOP-62 NSCLC): 2610 nM
- GI50 (HOP-92 NSCLC): 100 nM
- TGI (HOP-92 NSCLC): 1700 nM
- GI50 (HS 578T breast): 58.5 nM
- TGI (HS 578T breast): 1530 nM
- GI50 (HT29 colon): < 10 nM
- TGI (HT29 colon): 11100 nM
- TGI (IGROV1 ovarian): 16800 nM
- GI50 (K-562 leukemia): < 10 nM
- TGI (K-562 leukemia): 4860 nM
- GI50 (KM12 colon): < 10 nM
- TGI (KM12 colon): 14100 nM
- GI50 (LOX IMVI melanoma): < 16.7 nM
- TGI (LOX IMVI melanoma): 2370 nM
- GI50 (M14 melanoma): < 14.8 nM
- TGI (M14 melanoma): 5090 nM
- GI50 (MALME-3M melanoma): 2640 nM
- TGI (MALME-3M melanoma): 10500 nM
- GI50 (MCF7 breast): < 10 nM
- TGI (MCF7 breast): 10500 nM
- GI50 (MDA-MB-231 breast): < 18.6 nM
- TGI (MDA-MB-231 breast): 17300 nM
- GI50 (MDA-MB-435): < 10 nM
- TGI (MDA-MB-435): < 10 nM
- GI50 (MOLT-4 leukemia): < 10 nM
- TGI (MOLT-4 leukemia): 1790 nM
- GI50 (NCI-H226 lung): 2170 nM
- TGI (NCI-H226 lung): 14300 nM
- GI50 (NCI-H23 lung): < 11.4 nM
- TGI (NCI-H23 lung): 2980 nM
- GI50 (NCI-H460 lung): < 15.2 nM
- TGI (NCI-H460 lung): 11600 nM
- GI50 (NCI-H522 lung): 12.9 nM
- TGI (NCI-H522 lung): 2920 nM
- GI50 (NCI/ADR-RES ovarian): 964 nM
- TGI (NCI/ADR-RES ovarian): 15700 nM
- GI50 (OVCAR-3 ovarian): < 10 nM
- TGI (OVCAR-3 ovarian): 3900 nM
- GI50 (OVCAR-4 ovarian): 264 nM
- TGI (OVCAR-4 ovarian): 12500 nM
- GI50 (OVCAR-5 ovarian): 18.8 nM
- TGI (OVCAR-5 ovarian): 12100 nM
- GI50 (OVCAR-8 ovarian): < 10 nM
- TGI (OVCAR-8 ovarian): 18300 nM
- GI50 (PC-3 prostate): < 24.9 nM
- TGI (PC-3 prostate): 21400 nM
- TGI (RPMI-8226 leukemia): 8330 nM
- GI50 (RXF 393 renal): 54 nM
- TGI (RXF 393 renal): 11800 nM
- GI50 (SF-268 CNS): 48.7 nM
- TGI (SF-268 CNS): 12500 nM
- GI50 (SF-295 CNS): 49.1 nM
- TGI (SF-295 CNS): 3510 nM
- GI50 (SF-539 CNS): 21.5 nM
- TGI (SF-539 CNS): 5130 nM
- GI50 (SK-MEL-2 melanoma): 2230 nM
- TGI (SK-MEL-2 melanoma): 6560 nM
- GI50 (SK-MEL-28 melanoma): 29.3 nM
- TGI (SK-MEL-28 melanoma): 12100 nM
- GI50 (SK-MEL-5 melanoma): < 31.1 nM
- TGI (SK-MEL-5 melanoma): 1280 nM
- GI50 (SK-OV-3 ovarian): < 13.3 nM
- TGI (SK-OV-3 ovarian): 761 nM
- GI50 (SN12C renal): 124 nM
- TGI (SN12C renal): 15000 nM
- GI50 (SNB-19 CNS): 37.5 nM
- TGI (SNB-19 CNS): 16800 nM
- GI50 (SNB-75 CNS): 19.8 nM
- TGI (SNB-75 CNS): 16100 nM
- GI50 (SR leukemia): < 10 nM
- TGI (SR leukemia): 448 nM
- GI50 (SW-620 colon): < 10 nM
- TGI (SW-620 colon): 10400 nM
- GI50 (T-47D breast): 177 nM
- TGI (T-47D breast): 12600 nM
- GI50 (TK-10 renal): 1390 nM
- TGI (TK-10 renal): 14400 nM
- GI50 (U251 CNS): < 10 nM
- TGI (U251 CNS): 12900 nM
- GI50 (UACC-257 melanoma): 222 nM
- TGI (UACC-257 melanoma): 6610 nM
- GI50 (UACC-62 melanoma): < 24.6 nM
- TGI (UACC-62 melanoma): 5840 nM
- GI50 (UO-31 renal): 1660 nM
- TGI (UO-31 renal): 12900 nM
